Experimental findings from paper PMC3889317 (Diabetes Therapy, 2013) are described below.

The nature of this data set: Plasma pharmacokinetics. To be noted: during 5 days of dosing.

As to `N#C[C@@H]1C[C@@H]2C[C@@H]2N1C(=O)[C@@H](N)C12CC3CC(O)(CC(O)(C3)C1)C2` [5-OH-Saxagliptin, 5-hydroxy-saxagliptin], the “Plasma concentrations appeared to reach steady state by” value is reported as “Day 5”.
